Reference: paper PMC8076852 (Frontiers in Molecular Biosciences, 2021)

What was measured:
R1C3 = test system: T1, R1C3
T1 construct: gene speG

R1C1 = test system: T2, R1C1
T2 construct: gene speG

R3C2 = test system: T3, R3C2
T3 construct: gene speG

R1C2 = test system: T4, R1C2
T4 construct: gene speG

NCCCNCCCCNCCCN = assay: purified protein; conditions: pH 8.0; 37.0 °C

Q: With `NCCCNCCCCNCCCN` [spermine] as the compound, how does the Km (R1C3) read?
A: 244 ± 20 µM

Q: And the Km (R1C1)?
A: 2530 ± 710 µM

Q: And the Km (R3C2)?
A: 98 ± 8 µM

Q: And the Km (R1C2)?
A: 364 ± 8 µM

Q: “(Vibrio cholerae O1 biovar El Tor str. N16961)” was tested. Which K0.5 (NCCCNCCCCNCCCN) did it give?
A: 0.222 ± 0.005 mM
